System: not listed separately
Assay: DRUGMATRIX: ATPase, Na+/K+ enzyme inhibition (substrate: ATP)
Format: tissue-based, Sus scrofa, Heart
Conditions: Not Active = under 50% inhibition at 10 µM
In the case of `Cc1ccc(C(=O)C(C)CN2CCCCC2)cc1` (centres undefined) [TOLPERISONE], the IC50 is reported as “Not Active” and the Ki is reported as “Not Active”.
In the case of `NC(=O)c1ncn([C@@H]2O[C@H](CO)[C@@H](O)[C@H]2O)n1` [RIBAVIRIN], the IC50 is reported as “Not Active” and the Ki is reported as “Not Active”.

Target: Sigma non-opioid intracellular receptor 1 (Homo sapiens, UniProt Q99720)
Sequence (Q99720 whole entry): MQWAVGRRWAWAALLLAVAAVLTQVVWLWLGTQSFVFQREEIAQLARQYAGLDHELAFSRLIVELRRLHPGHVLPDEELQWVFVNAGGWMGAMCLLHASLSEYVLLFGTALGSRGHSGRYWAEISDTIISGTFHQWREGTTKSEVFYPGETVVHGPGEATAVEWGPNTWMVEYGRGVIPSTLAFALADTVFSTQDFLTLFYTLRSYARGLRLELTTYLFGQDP
Assay: DRUGMATRIX: Sigma1 radioligand binding (ligand: [3H] Haloperidol)
Format: cell membranes, Jurkat, Membrane
Conditions: Not Active = under 50% inhibition at 10 µM; read-out: IC50
Molecule `Cc1ccc(C(=O)C(C)CN2CCCCC2)cc1` (centres undefined) [TOLPERISONE] has an IC50 of 13 nM.

Same assay, conditions: Not Active = under 50% inhibition at 10 µM; read-out: Ki
For `Cc1ccc(C(=O)C(C)CN2CCCCC2)cc1` (centres undefined) [TOLPERISONE], the Ki was 5.59 nM.

Same assay, conditions: jurkat; Not Active = under 50% inhibition at 10 µM
With `NC(=O)c1ncn([C@@H]2O[C@H](CO)[C@@H](O)[C@H]2O)n1` [RIBAVIRIN] the IC50 was “Not Active”.

Target: T1, Endothelin-1 receptor (Homo sapiens, UniProt P25101); also: in other assays of this panel Not Active means under 50% inhibition at 10 µM
T1 sequence (P25101 whole entry): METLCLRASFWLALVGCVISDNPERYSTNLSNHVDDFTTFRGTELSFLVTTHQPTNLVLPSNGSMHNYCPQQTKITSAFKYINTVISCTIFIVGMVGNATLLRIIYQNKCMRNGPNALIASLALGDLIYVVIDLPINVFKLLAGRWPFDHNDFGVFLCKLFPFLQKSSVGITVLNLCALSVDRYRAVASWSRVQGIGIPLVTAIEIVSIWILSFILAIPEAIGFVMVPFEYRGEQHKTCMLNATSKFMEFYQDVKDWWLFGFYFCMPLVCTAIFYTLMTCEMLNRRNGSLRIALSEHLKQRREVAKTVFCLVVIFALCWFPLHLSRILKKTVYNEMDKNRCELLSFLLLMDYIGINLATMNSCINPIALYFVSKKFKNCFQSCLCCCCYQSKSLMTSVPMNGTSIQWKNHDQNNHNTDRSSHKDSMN
Format: cell membranes, Membrane
Conditions: cho-k1
With `Cc1ccc(C(=O)C(C)CN2CCCCC2)cc1` (centres undefined) [TOLPERISONE] the IC50 was “Not Active”.
With `NC(=O)c1ncn([C@@H]2O[C@H](CO)[C@@H](O)[C@H]2O)n1` [RIBAVIRIN] the IC50 was “Not Active”.

System: not listed separately
Assay: DRUGMATRIX: Serotonin (5-Hydroxytryptamine) 5-HT3 radioligand binding (ligand: [3H] GR-65630)
Format: cell membranes, Membrane
Conditions: hek293; Not Active = under 50% inhibition at 10 µM
For `Cc1ccc(C(=O)C(C)CN2CCCCC2)cc1` (centres undefined) [TOLPERISONE], the IC50 was “Not Active” and the Ki was “Not Active”.
With `NC(=O)c1ncn([C@@H]2O[C@H](CO)[C@@H](O)[C@H]2O)n1` [RIBAVIRIN] the IC50 was “Not Active” and the Ki was “Not Active”.

System: not listed separately
Assay: DRUGMATRIX: Calcium Channel Type L, Phenylalkylamine radioligand binding (ligand: [3H] (-)-Desmethoxyverapamil (D-888))
Format: cell membranes, Rattus norvegicus, Wistar, Brain, Membrane
Conditions: Not Active = under 50% inhibition at 10 µM
For `Cc1ccc(C(=O)C(C)CN2CCCCC2)cc1` (centres undefined) [TOLPERISONE], the IC50 was “Not Active” and the Ki was “Not Active”.
For `NC(=O)c1ncn([C@@H]2O[C@H](CO)[C@@H](O)[C@H]2O)n1` [RIBAVIRIN], the IC50 was “Not Active” and the Ki was “Not Active”.

Target: Melanocortin receptor 4 (Homo sapiens, UniProt P32245); also: in other assays of this panel Not Active means under 50% inhibition at 10 µM
Sequence (P32245 whole entry): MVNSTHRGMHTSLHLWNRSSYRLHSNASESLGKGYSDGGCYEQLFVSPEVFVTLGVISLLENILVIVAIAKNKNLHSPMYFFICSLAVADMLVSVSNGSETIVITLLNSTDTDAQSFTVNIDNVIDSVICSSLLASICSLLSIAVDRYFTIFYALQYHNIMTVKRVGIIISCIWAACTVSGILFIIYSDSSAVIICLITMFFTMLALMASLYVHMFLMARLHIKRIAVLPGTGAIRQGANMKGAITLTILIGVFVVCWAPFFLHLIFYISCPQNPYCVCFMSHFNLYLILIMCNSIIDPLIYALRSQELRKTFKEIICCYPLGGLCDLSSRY
Format: cell membranes, Membrane
Conditions: hek293
For `Cc1ccc(C(=O)C(C)CN2CCCCC2)cc1` (centres undefined) [TOLPERISONE], the IC50 was “Not Active”.
With `NC(=O)c1ncn([C@@H]2O[C@H](CO)[C@@H](O)[C@H]2O)n1` [RIBAVIRIN] the IC50 was “Not Active”.

Target: Kappa-type opioid receptor (Homo sapiens, UniProt P41145)
Sequence (P41145 whole entry): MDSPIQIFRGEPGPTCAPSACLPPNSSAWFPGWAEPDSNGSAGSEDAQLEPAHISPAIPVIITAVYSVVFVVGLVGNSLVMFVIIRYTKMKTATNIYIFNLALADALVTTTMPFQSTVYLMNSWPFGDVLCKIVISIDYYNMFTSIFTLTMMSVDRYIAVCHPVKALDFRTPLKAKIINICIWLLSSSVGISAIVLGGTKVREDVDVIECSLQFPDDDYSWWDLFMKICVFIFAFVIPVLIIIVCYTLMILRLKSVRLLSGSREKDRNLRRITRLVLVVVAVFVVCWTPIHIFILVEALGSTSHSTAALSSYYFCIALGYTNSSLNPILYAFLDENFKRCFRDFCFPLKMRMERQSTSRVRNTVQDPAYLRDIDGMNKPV
Assay: DRUGMATRIX: Opiate kappa (OP2, KOP) radioligand binding (ligand: [3H] Diprenorphine)
Format: cell membranes, HEK293, Membrane
Conditions: hek293; Not Active = under 50% inhibition at 10 µM
With `Cc1ccc(C(=O)C(C)CN2CCCCC2)cc1` (centres undefined) [TOLPERISONE] the IC50 was “Not Active”.
With `NC(=O)c1ncn([C@@H]2O[C@H](CO)[C@@H](O)[C@H]2O)n1` [RIBAVIRIN] the IC50 was “Not Active”.

System: not listed separately
Assay: DRUGMATRIX: GABAA, Muscimol, Central radioligand binding (ligand: [3H] Muscimol)
Format: cell membranes, Rattus norvegicus, Wistar, Brain, Membrane
Conditions: Not Active = under 50% inhibition at 10 µM
With `Cc1ccc(C(=O)C(C)CN2CCCCC2)cc1` (centres undefined) [TOLPERISONE] the IC50 was “Not Active” and the Ki was “Not Active”.
For `NC(=O)c1ncn([C@@H]2O[C@H](CO)[C@@H](O)[C@H]2O)n1` [RIBAVIRIN], the IC50 was “Not Active” and the Ki was “Not Active”.

System: not listed separately
Assay: DRUGMATRIX: Calcium Channel Type L, Benzothiazepine radioligand binding (ligand: [3H] Diltiazem)
Format: cell membranes, Rattus norvegicus, Wistar, Brain, Membrane
Conditions: Not Active = under 50% inhibition at 10 µM
In the case of `Cc1ccc(C(=O)C(C)CN2CCCCC2)cc1` (centres undefined) [TOLPERISONE], the IC50 is reported as “Not Active” and the Ki is reported as “Not Active”.
With `NC(=O)c1ncn([C@@H]2O[C@H](CO)[C@@H](O)[C@H]2O)n1` [RIBAVIRIN] the IC50 was “Not Active” and the Ki was “Not Active”.

System: not listed separately
Assay: DRUGMATRIX: Nicotinic Acetylcholine radioligand binding (ligand: [125I] Epibatidine)
Format: cell membranes, Membrane
Conditions: imr-32; Not Active = under 50% inhibition at 10 µM
For `Cc1ccc(C(=O)C(C)CN2CCCCC2)cc1` (centres undefined) [TOLPERISONE], the IC50 was “Not Active” and the Ki was “Not Active”.
In the case of `NC(=O)c1ncn([C@@H]2O[C@H](CO)[C@@H](O)[C@H]2O)n1` [RIBAVIRIN], the IC50 is reported as “Not Active” and the Ki is reported as “Not Active”.

Target: Beta-1 adrenergic receptor (Homo sapiens, UniProt P08588)
Sequence (P08588 whole entry): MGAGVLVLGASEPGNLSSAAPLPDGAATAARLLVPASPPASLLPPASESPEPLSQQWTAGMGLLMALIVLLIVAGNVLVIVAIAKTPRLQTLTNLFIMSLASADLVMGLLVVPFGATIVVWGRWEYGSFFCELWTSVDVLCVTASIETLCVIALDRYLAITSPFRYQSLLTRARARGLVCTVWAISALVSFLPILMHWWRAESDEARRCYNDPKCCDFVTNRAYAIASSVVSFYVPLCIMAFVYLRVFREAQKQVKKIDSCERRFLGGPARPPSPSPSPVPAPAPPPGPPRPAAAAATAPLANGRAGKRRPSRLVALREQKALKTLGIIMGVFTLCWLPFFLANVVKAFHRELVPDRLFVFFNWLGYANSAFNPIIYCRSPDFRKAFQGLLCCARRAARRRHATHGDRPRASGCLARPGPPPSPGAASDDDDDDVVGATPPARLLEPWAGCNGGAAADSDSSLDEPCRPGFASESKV
Assay: DRUGMATRIX: Adrenergic beta1 radioligand binding (ligand: [125I] Cyanopindolol)
Format: cell membranes, CHO-K1, Membrane
Conditions: cho-k1; Not Active = under 50% inhibition at 10 µM
For `Cc1ccc(C(=O)C(C)CN2CCCCC2)cc1` (centres undefined) [TOLPERISONE], the IC50 was “Not Active”.
With `NC(=O)c1ncn([C@@H]2O[C@H](CO)[C@@H](O)[C@H]2O)n1` [RIBAVIRIN] the IC50 was “Not Active”.

Target: 5-hydroxytryptamine receptor 6 (Homo sapiens, UniProt P50406); also: in other assays of this panel Not Active means under 50% inhibition at 10 µM
Sequence (P50406 whole entry): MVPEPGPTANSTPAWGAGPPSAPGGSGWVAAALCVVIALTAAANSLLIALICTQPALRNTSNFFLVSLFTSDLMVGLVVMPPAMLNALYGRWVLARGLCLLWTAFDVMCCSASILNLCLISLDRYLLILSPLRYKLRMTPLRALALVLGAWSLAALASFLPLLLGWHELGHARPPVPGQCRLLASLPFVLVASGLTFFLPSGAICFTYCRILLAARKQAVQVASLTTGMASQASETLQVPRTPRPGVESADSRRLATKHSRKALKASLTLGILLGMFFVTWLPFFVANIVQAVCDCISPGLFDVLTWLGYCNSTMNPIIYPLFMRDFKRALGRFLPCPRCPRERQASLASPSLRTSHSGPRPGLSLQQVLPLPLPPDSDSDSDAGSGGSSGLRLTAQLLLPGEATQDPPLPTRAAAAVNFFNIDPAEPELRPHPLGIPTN
Format: cell membranes, HeLa, Membrane
Conditions: hela
In the case of `Cc1ccc(C(=O)C(C)CN2CCCCC2)cc1` (centres undefined) [TOLPERISONE], the IC50 is reported as “Not Active”.
With `NC(=O)c1ncn([C@@H]2O[C@H](CO)[C@@H](O)[C@H]2O)n1` [RIBAVIRIN] the IC50 was “Not Active”.

Target: Mu-type opioid receptor (Homo sapiens, UniProt P35372)
Sequence (P35372 whole entry): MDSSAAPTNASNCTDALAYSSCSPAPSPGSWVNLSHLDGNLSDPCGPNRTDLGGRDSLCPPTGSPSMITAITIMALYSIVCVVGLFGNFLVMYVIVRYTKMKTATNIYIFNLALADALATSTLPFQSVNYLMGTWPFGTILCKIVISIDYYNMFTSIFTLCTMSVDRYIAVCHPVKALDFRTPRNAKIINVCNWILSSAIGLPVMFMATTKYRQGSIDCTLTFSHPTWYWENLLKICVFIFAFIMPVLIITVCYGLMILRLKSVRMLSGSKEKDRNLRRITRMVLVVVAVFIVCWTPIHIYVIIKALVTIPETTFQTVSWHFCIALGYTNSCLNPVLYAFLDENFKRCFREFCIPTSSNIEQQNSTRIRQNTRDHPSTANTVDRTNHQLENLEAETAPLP
Assay: DRUGMATRIX: Opiate mu (OP3, MOP) radioligand binding (ligand: [3H] Diprenorphine)
Format: cell membranes, CHO-K1, Membrane
Conditions: cho-k1; Not Active = under 50% inhibition at 10 µM
In the case of `Cc1ccc(C(=O)C(C)CN2CCCCC2)cc1` (centres undefined) [TOLPERISONE], the IC50 is reported as “Not Active”.
For `NC(=O)c1ncn([C@@H]2O[C@H](CO)[C@@H](O)[C@H]2O)n1` [RIBAVIRIN], the IC50 was “Not Active”.

Target: T2, Neuropeptide Y receptor type 2 (Homo sapiens, UniProt P49146); also: in other assays of this panel Not Active means under 50% inhibition at 10 µM
T2 sequence (P49146 whole entry): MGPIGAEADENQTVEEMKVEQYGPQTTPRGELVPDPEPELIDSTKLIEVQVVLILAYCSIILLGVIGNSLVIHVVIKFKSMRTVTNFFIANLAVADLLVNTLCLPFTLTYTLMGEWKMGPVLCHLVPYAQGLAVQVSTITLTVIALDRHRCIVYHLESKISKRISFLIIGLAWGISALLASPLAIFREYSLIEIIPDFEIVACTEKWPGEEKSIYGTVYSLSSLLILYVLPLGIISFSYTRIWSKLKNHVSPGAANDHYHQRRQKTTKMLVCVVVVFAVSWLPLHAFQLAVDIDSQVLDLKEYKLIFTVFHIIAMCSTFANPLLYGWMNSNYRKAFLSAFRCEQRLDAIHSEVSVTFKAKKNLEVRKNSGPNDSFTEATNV
Format: cell membranes, Membrane
Conditions: kan-ts
For `Cc1ccc(C(=O)C(C)CN2CCCCC2)cc1` (centres undefined) [TOLPERISONE], the IC50 was “Not Active”.
In the case of `NC(=O)c1ncn([C@@H]2O[C@H](CO)[C@@H](O)[C@H]2O)n1` [RIBAVIRIN], the IC50 is reported as “Not Active”.

Target: T3, 5-hydroxytryptamine receptor 2C (Homo sapiens, UniProt P28335)
T3 sequence (P28335 whole entry): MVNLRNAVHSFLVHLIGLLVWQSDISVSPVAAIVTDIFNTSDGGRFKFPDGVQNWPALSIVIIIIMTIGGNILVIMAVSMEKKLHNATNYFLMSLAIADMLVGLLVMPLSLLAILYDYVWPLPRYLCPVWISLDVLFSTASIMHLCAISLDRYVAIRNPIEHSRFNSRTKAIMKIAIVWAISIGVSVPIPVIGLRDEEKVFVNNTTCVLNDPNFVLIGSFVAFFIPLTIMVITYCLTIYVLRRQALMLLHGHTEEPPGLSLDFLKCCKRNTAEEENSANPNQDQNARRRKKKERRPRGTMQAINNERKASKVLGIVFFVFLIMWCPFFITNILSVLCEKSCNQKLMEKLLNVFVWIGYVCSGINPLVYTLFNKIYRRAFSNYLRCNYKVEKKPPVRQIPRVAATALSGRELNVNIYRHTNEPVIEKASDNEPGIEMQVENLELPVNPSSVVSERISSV
Assay: DRUGMATRIX: Serotonin (5-Hydroxytryptamine) 5-HT2C radioligand binding (ligand: [3H] Mesulergine)
Format: cell membranes, CHO-K1, Membrane
Conditions: cho-k1; Not Active = under 50% inhibition at 10 µM
For `Cc1ccc(C(=O)C(C)CN2CCCCC2)cc1` (centres undefined) [TOLPERISONE], the IC50 was “Not Active”.
With `NC(=O)c1ncn([C@@H]2O[C@H](CO)[C@@H](O)[C@H]2O)n1` [RIBAVIRIN] the IC50 was “Not Active”.

Target: T4, Alpha-1B adrenergic receptor (Rattus norvegicus, UniProt P15823)
T4 sequence (P15823 whole entry): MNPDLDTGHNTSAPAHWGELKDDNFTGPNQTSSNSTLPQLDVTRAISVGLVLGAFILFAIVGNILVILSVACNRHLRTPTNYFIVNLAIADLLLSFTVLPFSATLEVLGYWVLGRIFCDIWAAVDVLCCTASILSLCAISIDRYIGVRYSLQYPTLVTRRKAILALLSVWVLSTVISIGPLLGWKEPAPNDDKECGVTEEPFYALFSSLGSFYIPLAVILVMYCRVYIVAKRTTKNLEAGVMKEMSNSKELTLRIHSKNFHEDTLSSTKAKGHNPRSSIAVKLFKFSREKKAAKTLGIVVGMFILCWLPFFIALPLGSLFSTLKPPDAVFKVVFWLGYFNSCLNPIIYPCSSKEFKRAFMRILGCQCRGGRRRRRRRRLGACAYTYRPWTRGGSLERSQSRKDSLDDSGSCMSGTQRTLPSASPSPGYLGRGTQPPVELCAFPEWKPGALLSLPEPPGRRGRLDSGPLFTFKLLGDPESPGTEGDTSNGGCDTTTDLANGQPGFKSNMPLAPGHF
Assay: DRUGMATRIX: Alpha-1B adrenergic receptor radioligand binding (ligand: prazosin)
Format: cell membranes, Wistar, Liver, Membrane
Conditions: Not Active = under 50% inhibition at 10 µM
With `Cc1ccc(C(=O)C(C)CN2CCCCC2)cc1` (centres undefined) [TOLPERISONE] the IC50 was “Not Active”.
In the case of `NC(=O)c1ncn([C@@H]2O[C@H](CO)[C@@H](O)[C@H]2O)n1` [RIBAVIRIN], the IC50 is reported as “Not Active”.

System: not listed separately
Assay: DRUGMATRIX: Glutamate, Kainate radioligand binding (ligand: [3H] Kainic acid)
Format: cell membranes, Rattus norvegicus, Wistar, Brain, Membrane
Conditions: Not Active = under 50% inhibition at 10 µM
In the case of `Cc1ccc(C(=O)C(C)CN2CCCCC2)cc1` (centres undefined) [TOLPERISONE], the IC50 is reported as “Not Active” and the Ki is reported as “Not Active”.
In the case of `NC(=O)c1ncn([C@@H]2O[C@H](CO)[C@@H](O)[C@H]2O)n1` [RIBAVIRIN], the IC50 is reported as “Not Active” and the Ki is reported as “Not Active”.

— ChEMBL document CHEMBL1909046, “DrugMatrix in vitro pharmacology data”
